# Laboratory results reported in ChEMBL document CHEMBL3044734, “Major secondary metabolites produced by two commercial Trichoderma strains active against different phytopathogens” (2006).
# Tested on: Globisporangium ultimum
# Assay: Antimicrobial activity against Pythium ultimum assessed as colony diameter at 100 ug/plug after 3 days ( Rvb = 8.50 cm)
# Format: functional
row,SMILES,Activity
1,C/C=C/C=C/CC1=C(CC(C)O)C(=O)OC1 (stereo unspecified) [HARZIANOLIDE],8.5 cm
2,C/C=C/CC(C)C(=O)c1c(O)c(OC)c(OC)[nH]c1=O (stereo unspecified) [HARZIANOPYRIDONE],7.9 cm
3,C/C=C/C=C/C1=CC2=CC(=O)[C@](C)(OC(=O)[C@H](C)O)C(=O)C2=CO1 [T22AZAPHILONE],0 cm
4,C/C=C/C=C/CC1=C(CC(C)=O)C(=O)OC1 [T39BUTENOLIDE],8.05 cm

# Tested on: Globisporangium ultimum
# Assay: Antimicrobial activity against Pythium ultimum assessed as colony diameter at 10 ug/plug after 3 days ( Rvb = 8.50 cm)
# Format: functional
row,SMILES,Activity
1,C/C=C/C=C/CC1=C(CC(C)O)C(=O)OC1 (stereo unspecified) [HARZIANOLIDE],8.5 cm
2,C/C=C/CC(C)C(=O)c1c(O)c(OC)c(OC)[nH]c1=O (stereo unspecified) [HARZIANOPYRIDONE],8.5 cm
3,C/C=C/C=C/C1=CC2=CC(=O)[C@](C)(OC(=O)[C@H](C)O)C(=O)C2=CO1 [T22AZAPHILONE],5.2 cm
4,C/C=C/C=C/CC1=C(CC(C)=O)C(=O)OC1 [T39BUTENOLIDE],8.5 cm

# Tested on: Globisporangium ultimum
# Assay: Antimicrobial activity against Pythium ultimum assessed as colony diameter at 1 ug/plug after 3 days ( Rvb = 8.50 cm)
# Format: functional
row,SMILES,Activity
1,C/C=C/C=C/CC1=C(CC(C)O)C(=O)OC1 (stereo unspecified) [HARZIANOLIDE],8.5 cm
2,C/C=C/CC(C)C(=O)c1c(O)c(OC)c(OC)[nH]c1=O (stereo unspecified) [HARZIANOPYRIDONE],8.5 cm
3,C/C=C/C=C/C1=CC2=CC(=O)[C@](C)(OC(=O)[C@H](C)O)C(=O)C2=CO1 [T22AZAPHILONE],8.3 cm
4,C/C=C/C=C/CC1=C(CC(C)=O)C(=O)OC1 [T39BUTENOLIDE],8.5 cm

# Tested on: Globisporangium ultimum
# Assay: Antimicrobial activity against Pythium ultimum assessed as colony diameter at 0.1 ug/plug after 3 days ( Rvb = 8.50 cm)
# Format: functional
row,SMILES,Activity
1,C/C=C/C=C/CC1=C(CC(C)O)C(=O)OC1 (stereo unspecified) [HARZIANOLIDE],8.5 cm
2,C/C=C/CC(C)C(=O)c1c(O)c(OC)c(OC)[nH]c1=O (stereo unspecified) [HARZIANOPYRIDONE],8.5 cm
3,C/C=C/C=C/C1=CC2=CC(=O)[C@](C)(OC(=O)[C@H](C)O)C(=O)C2=CO1 [T22AZAPHILONE],8.5 cm
4,C/C=C/C=C/CC1=C(CC(C)=O)C(=O)OC1 [T39BUTENOLIDE],8.5 cm

# Tested on: Globisporangium ultimum
# Assay: Antimicrobial activity against Pythium ultimum assessed as colony diameter at 0.01 ug/plug after 3 days ( Rvb = 8.50 cm)
# Format: functional
row,SMILES,Activity
1,C/C=C/C=C/CC1=C(CC(C)O)C(=O)OC1 (stereo unspecified) [HARZIANOLIDE],8.5 cm
2,C/C=C/CC(C)C(=O)c1c(O)c(OC)c(OC)[nH]c1=O (stereo unspecified) [HARZIANOPYRIDONE],8.5 cm
3,C/C=C/C=C/C1=CC2=CC(=O)[C@](C)(OC(=O)[C@H](C)O)C(=O)C2=CO1 [T22AZAPHILONE],8.5 cm
4,C/C=C/C=C/CC1=C(CC(C)=O)C(=O)OC1 [T39BUTENOLIDE],8.5 cm

# Tested on: Rhizoctonia solani
# Assay: Antimicrobial activity against Rhizoctonia solani assessed as colony diameter at 200 ug/plug after 3 days ( Rvb = 2.95 +/- 0.11 cm)
# Format: functional
row,SMILES,Activity
1,C/C=C/C=C/CC1=C(CC(C)O)C(=O)OC1 (stereo unspecified) [HARZIANOLIDE],2.35 cm
2,C/C=C/C=C/CC1=C(CC(C)=O)C(=O)OC1 [T39BUTENOLIDE],0 cm

# Tested on: Rhizoctonia solani
# Assay: Antimicrobial activity against Rhizoctonia solani assessed as colony diameter at 100 ug/plug after 3 days ( Rvb = 2.95 +/- 0.11 cm)
# Format: functional
row,SMILES,Activity
1,C/C=C/C=C/CC1=C(CC(C)O)C(=O)OC1 (stereo unspecified) [HARZIANOLIDE],2.7 cm
2,C/C=C/CC(C)C(=O)c1c(O)c(OC)c(OC)[nH]c1=O (stereo unspecified) [HARZIANOPYRIDONE],0 cm
3,C/C=C/C=C/C1=CC2=CC(=O)[C@](C)(OC(=O)[C@H](C)O)C(=O)C2=CO1 [T22AZAPHILONE],0 cm
4,C/C=C/C=C/CC1=C(CC(C)=O)C(=O)OC1 [T39BUTENOLIDE],0 cm

# Tested on: Rhizoctonia solani
# Assay: Antimicrobial activity against Rhizoctonia solani assessed as colony diameter at 10 ug/plug after 3 days ( Rvb = 2.95 +/- 0.11 cm)
# Format: functional
row,SMILES,Activity
1,C/C=C/C=C/CC1=C(CC(C)O)C(=O)OC1 (stereo unspecified) [HARZIANOLIDE],3.05 cm
2,C/C=C/CC(C)C(=O)c1c(O)c(OC)c(OC)[nH]c1=O (stereo unspecified) [HARZIANOPYRIDONE],0 cm
3,C/C=C/C=C/C1=CC2=CC(=O)[C@](C)(OC(=O)[C@H](C)O)C(=O)C2=CO1 [T22AZAPHILONE],0 cm
4,C/C=C/C=C/CC1=C(CC(C)=O)C(=O)OC1 [T39BUTENOLIDE],2.13 cm

# Tested on: Rhizoctonia solani
# Assay: Antimicrobial activity against Rhizoctonia solani assessed as colony diameter at 1 ug/plug after 3 days ( Rvb = 2.95 +/- 0.11 cm)
# Format: functional
row,SMILES,Activity
1,C/C=C/C=C/CC1=C(CC(C)O)C(=O)OC1 (stereo unspecified) [HARZIANOLIDE],2.5 cm
2,C/C=C/CC(C)C(=O)c1c(O)c(OC)c(OC)[nH]c1=O (stereo unspecified) [HARZIANOPYRIDONE],1.2 cm
3,C/C=C/C=C/C1=CC2=CC(=O)[C@](C)(OC(=O)[C@H](C)O)C(=O)C2=CO1 [T22AZAPHILONE],1.9 cm
4,C/C=C/C=C/CC1=C(CC(C)=O)C(=O)OC1 [T39BUTENOLIDE],2.4 cm

# Tested on: Rhizoctonia solani
# Assay: Antimicrobial activity against Rhizoctonia solani assessed as colony diameter at 0.1 ug/plug after 3 days ( Rvb = 2.95 +/- 0.11 cm)
# Format: functional
row,SMILES,Activity
1,C/C=C/C=C/CC1=C(CC(C)O)C(=O)OC1 (stereo unspecified) [HARZIANOLIDE],2.83 cm
2,C/C=C/CC(C)C(=O)c1c(O)c(OC)c(OC)[nH]c1=O (stereo unspecified) [HARZIANOPYRIDONE],2.53 cm
3,C/C=C/C=C/C1=CC2=CC(=O)[C@](C)(OC(=O)[C@H](C)O)C(=O)C2=CO1 [T22AZAPHILONE],2.83 cm
4,C/C=C/C=C/CC1=C(CC(C)=O)C(=O)OC1 [T39BUTENOLIDE],2.5 cm

# Tested on: Rhizoctonia solani
# Assay: Antimicrobial activity against Rhizoctonia solani assessed as colony diameter at 0.01 ug/plug after 3 days ( Rvb = 2.95 +/- 0.11 cm)
# Format: functional
row,SMILES,Activity
1,C/C=C/C=C/CC1=C(CC(C)O)C(=O)OC1 (stereo unspecified) [HARZIANOLIDE],2.8 cm
2,C/C=C/CC(C)C(=O)c1c(O)c(OC)c(OC)[nH]c1=O (stereo unspecified) [HARZIANOPYRIDONE],2.73 cm
3,C/C=C/C=C/C1=CC2=CC(=O)[C@](C)(OC(=O)[C@H](C)O)C(=O)C2=CO1 [T22AZAPHILONE],2.9 cm
4,C/C=C/C=C/CC1=C(CC(C)=O)C(=O)OC1 [T39BUTENOLIDE],2.73 cm

# Tested on: Gaeumannomyces tritici
# Assay: Antimicrobial activity against Gaeumannomyces graminis var. tritici assessed as colony diameter at 200 ug/plug after 3 days ( Rvb = 1.40+/- 0.8 cm)
# Format: functional
row,SMILES,Activity
1,C/C=C/C=C/CC1=C(CC(C)O)C(=O)OC1 (stereo unspecified) [HARZIANOLIDE],0.7 cm
2,C/C=C/C=C/CC1=C(CC(C)=O)C(=O)OC1 [T39BUTENOLIDE],0 cm

# Tested on: Gaeumannomyces tritici
# Assay: Antimicrobial activity against Gaeumannomyces graminis var. tritici assessed as colony diameter at 100 ug/plug after 3 days ( Rvb = 1.40+/- 0.8 cm)
# Format: functional
row,SMILES,Activity
1,C/C=C/C=C/CC1=C(CC(C)O)C(=O)OC1 (stereo unspecified) [HARZIANOLIDE],1.25 cm
2,C/C=C/CC(C)C(=O)c1c(O)c(OC)c(OC)[nH]c1=O (stereo unspecified) [HARZIANOPYRIDONE],0 cm
3,C/C=C/C=C/C1=CC2=CC(=O)[C@](C)(OC(=O)[C@H](C)O)C(=O)C2=CO1 [T22AZAPHILONE],0 cm
4,C/C=C/C=C/CC1=C(CC(C)=O)C(=O)OC1 [T39BUTENOLIDE],0 cm

# Tested on: Gaeumannomyces tritici
# Assay: Antimicrobial activity against Gaeumannomyces graminis var. tritici assessed as colony diameter at 10 ug/plug after 3 days ( Rvb = 1.40+/- 0.8 cm)
# Format: functional
row,SMILES,Activity
1,C/C=C/C=C/CC1=C(CC(C)O)C(=O)OC1 (stereo unspecified) [HARZIANOLIDE],1.1 cm
2,C/C=C/CC(C)C(=O)c1c(O)c(OC)c(OC)[nH]c1=O (stereo unspecified) [HARZIANOPYRIDONE],0 cm
3,C/C=C/C=C/C1=CC2=CC(=O)[C@](C)(OC(=O)[C@H](C)O)C(=O)C2=CO1 [T22AZAPHILONE],0 cm
4,C/C=C/C=C/CC1=C(CC(C)=O)C(=O)OC1 [T39BUTENOLIDE],1.23 cm

# Tested on: Gaeumannomyces tritici
# Assay: Antimicrobial activity against Gaeumannomyces graminis var. tritici assessed as colony diameter at 1 ug/plug after 3 days ( Rvb = 1.40+/- 0.8 cm)
# Format: functional
row,SMILES,Activity
1,C/C=C/C=C/CC1=C(CC(C)O)C(=O)OC1 (stereo unspecified) [HARZIANOLIDE],1.43 cm
2,C/C=C/CC(C)C(=O)c1c(O)c(OC)c(OC)[nH]c1=O (stereo unspecified) [HARZIANOPYRIDONE],0 cm
3,C/C=C/C=C/C1=CC2=CC(=O)[C@](C)(OC(=O)[C@H](C)O)C(=O)C2=CO1 [T22AZAPHILONE],0 cm
4,C/C=C/C=C/CC1=C(CC(C)=O)C(=O)OC1 [T39BUTENOLIDE],1.1 cm

# Tested on: Gaeumannomyces tritici
# Assay: Antimicrobial activity against Gaeumannomyces graminis var. tritici assessed as colony diameter at 0.1 ug/plug after 3 days ( Rvb = 1.40+/- 0.8 cm)
# Format: functional
row,SMILES,Activity
1,C/C=C/C=C/CC1=C(CC(C)O)C(=O)OC1 (stereo unspecified) [HARZIANOLIDE],1.25 cm
2,C/C=C/CC(C)C(=O)c1c(O)c(OC)c(OC)[nH]c1=O (stereo unspecified) [HARZIANOPYRIDONE],0.7 cm
3,C/C=C/C=C/C1=CC2=CC(=O)[C@](C)(OC(=O)[C@H](C)O)C(=O)C2=CO1 [T22AZAPHILONE],1.13 cm
4,C/C=C/C=C/CC1=C(CC(C)=O)C(=O)OC1 [T39BUTENOLIDE],1.13 cm

# Tested on: Gaeumannomyces tritici
# Assay: Antimicrobial activity against Gaeumannomyces graminis var. tritici assessed as colony diameter at 0.01 ug/plug after 3 days ( Rvb = 1.40+/- 0.8 cm)
# Format: functional
row,SMILES,Activity
1,C/C=C/C=C/CC1=C(CC(C)O)C(=O)OC1 (stereo unspecified) [HARZIANOLIDE],1.05 cm
2,C/C=C/CC(C)C(=O)c1c(O)c(OC)c(OC)[nH]c1=O (stereo unspecified) [HARZIANOPYRIDONE],0.98 cm
3,C/C=C/C=C/C1=CC2=CC(=O)[C@](C)(OC(=O)[C@H](C)O)C(=O)C2=CO1 [T22AZAPHILONE],1.18 cm
4,C/C=C/C=C/CC1=C(CC(C)=O)C(=O)OC1 [T39BUTENOLIDE],1.2 cm

# Tested on: Globisporangium ultimum
# Assay: Antimicrobial activity against Pythium ultimum assessed as colony diameter at 200 ug/plug after 3 days ( Rvb = 8.50 cm)
# Format: functional
row,SMILES,Activity
1,C/C=C/C=C/CC1=C(CC(C)O)C(=O)OC1 (stereo unspecified) [HARZIANOLIDE],7.6 cm
2,C/C=C/C=C/CC1=C(CC(C)=O)C(=O)OC1 [T39BUTENOLIDE],6.35 cm
